# Test results reported in PMC11892870 (PLOS One, 2025).
# Like-named read-outs stand apart in the source and are kept apart here.
# Experiments:
# [1] = system: scopolamine-induced amnesic mice; experiment: Modified Y-maze test, scopolamine-induced amnesia; type: in vivo
# [2] = system: male ICR mice; experiment: Locomotor activity and spontaneous alternation in Y-maze; type: in vivo; settings: donepezil 3 mg/kg p.o., average of 7 mice
# Experimental: Scopolamine was dissolved in NSS. Donepezil and crude extract were dissolved in corn oil. Animal doses were calculated according to mice body weight. […].
# Sixty male ICR mice in age 6 weeks (34-44 g) were supplied from Northeast Laboratory Animal Center, KKU. Before conducting the experiments, they were acclimatized for a week with a 12h light-dark cycle and had free access to their diet and water. Their body weight was recorded every day. […] Investigators could not be blinded to the mouse groups due to the difference in code colors. However, the investigators who assessed the mouse’s behavior were blinded to the mouse code for providing unbiased data. The parameters related to behavioral changes were assessed including the number of arm entries, the exploration time spent, and the time spent in a preference quadrant.
# Locomotor activity was investigated in a black polyvinyl chamber Y maze. The size of the chamber is 40 cm long, 3 cm wide at the bottom and 10 cm wide at the top, and 12 cm high in each arm. Mice were first allowed to acclimate the chamber and freely moved in Y maze for 8 minutes. After acclimatization, the locomotor activity was measured for 1 hour following the treatment administration. The number of arm entries was recorded from the middle of the maze.
# [3] = system: scopolamine-induced amnesic mice; experiment: Novel object recognition test, scopolamine-induced amnesia; type: in vivo
# [4] = system: scopolamine-induced amnesic mice; experiment: Morris water maze test, scopolamine-induced amnesia; type: in vivo
# [5] = target: T1, Aβ1-42 (Homo sapiens, UniProt P05067); experiment: Inhibition of Aβ1-42 aggregation (fibril formation), ThT fluorescence; type: biochemical
# T1 construct: Aβ1-42 was firstly dissolved in HFIP
# T1 sequence (P05067 672-713 limits assumed): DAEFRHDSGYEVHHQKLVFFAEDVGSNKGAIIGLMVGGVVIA
# Source text: (§1) Then, the solvent was dried in hood using nitrogen, and reconstituted to working solution with 0.5 M phosphate buffer (pH 7.4).
# [6] = Cytotoxicity in differentiated SH-SY5Y cells, MTT; type: cell-based; settings: human
# Experimental: (§2) Neuroblastoma cells (SH-SY5Y) were maintained in humidified atmosphere at 37 °C with 5%CO2 in DMEM/F12 supplement with 10%FBS. Afterward, cells were treated for 6 days and replaced every 3 days with 1%FBS supplementation and 10 μM of retinoic acid. Cells were seeded (100,000 cells per well) in 96-well microplates and cultured for 48 hours before treatment. […] Cell viability was assessed using MTT assay. Absorbance at 570 nm was measured for both treated and untreated samples, with viability expressed as a percentage relative to the control.
# [7] = DPPH radical scavenging; settings: read-out: Antioxidant DPPH IC50
# Experimental: (§3) The mixtures were kept in the dark for 30 minutes and then the absorbance was measured at 550 nm. In case of ABTS assay, ABTS radical cation (ABTS • + ) was prepared from a mixture of the ABTS stock solution (7 mM) and potassium persulfate (2.45 mM) in water. The mixture was then kept in the dark for 12-16 hours before use. Then, the ABTS • + solution was diluted in ethanol until the absorbance reached 0.70 ± 0.02 at […].
# (§4) Trolox was used as a positive control in both assays, while a mixture of ethanol and DPPH or ABTS • + solution served as the negative control. The percentage inhibition of DPPH and ABTS radicals was calculated using the following equation:
# (§5) DPPHandABTSinhibition%=A0−A1/A0×100
# (§6) A0 is the absorbance of the control and A1 is the absorbance of the sample.
# [8] = target: AChE (Homo sapiens, UniProt P22303); experiment: biochemical
# Sequence of AChE (P22303 32-614): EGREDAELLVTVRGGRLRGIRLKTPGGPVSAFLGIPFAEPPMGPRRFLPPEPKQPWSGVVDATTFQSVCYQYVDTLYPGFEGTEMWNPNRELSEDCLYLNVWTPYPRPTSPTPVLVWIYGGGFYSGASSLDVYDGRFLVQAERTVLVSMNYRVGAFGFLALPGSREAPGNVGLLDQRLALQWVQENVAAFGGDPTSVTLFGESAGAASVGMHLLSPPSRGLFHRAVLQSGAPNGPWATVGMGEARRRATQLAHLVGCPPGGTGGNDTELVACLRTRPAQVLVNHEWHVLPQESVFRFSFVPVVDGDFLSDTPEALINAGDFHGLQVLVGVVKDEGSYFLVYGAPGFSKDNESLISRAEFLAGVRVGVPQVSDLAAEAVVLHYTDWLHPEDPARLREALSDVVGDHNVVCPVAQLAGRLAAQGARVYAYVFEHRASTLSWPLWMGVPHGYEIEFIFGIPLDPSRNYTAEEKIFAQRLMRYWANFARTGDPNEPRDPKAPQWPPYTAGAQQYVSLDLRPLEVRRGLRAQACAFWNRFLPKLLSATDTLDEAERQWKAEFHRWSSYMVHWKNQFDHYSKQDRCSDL
# [9] = target: T2, Aβ1-42 fibrils (Homo sapiens, UniProt P05067); experiment: biochemical; settings: read-out: Aβ destabilization IC50
# T2 construct: Aβ1-42 was firstly dissolved in HFIP
# T2 sequence (P05067 672-713 limits assumed): as the sequence (P05067 672-713 limits assumed) above
# Source text: as §1
# [10] = ABTS radical scavenging; settings: read-out: Antioxidant ABTS IC50
# Experimental: as §3, §4, §5, §6
# [11] = target: BChE (Homo sapiens, UniProt P06276); experiment: biochemical; settings: mean ± SD, n = 3; read-out: BChE inhibition IC50
# Sequence of BChE (P06276 29-602, species assumed): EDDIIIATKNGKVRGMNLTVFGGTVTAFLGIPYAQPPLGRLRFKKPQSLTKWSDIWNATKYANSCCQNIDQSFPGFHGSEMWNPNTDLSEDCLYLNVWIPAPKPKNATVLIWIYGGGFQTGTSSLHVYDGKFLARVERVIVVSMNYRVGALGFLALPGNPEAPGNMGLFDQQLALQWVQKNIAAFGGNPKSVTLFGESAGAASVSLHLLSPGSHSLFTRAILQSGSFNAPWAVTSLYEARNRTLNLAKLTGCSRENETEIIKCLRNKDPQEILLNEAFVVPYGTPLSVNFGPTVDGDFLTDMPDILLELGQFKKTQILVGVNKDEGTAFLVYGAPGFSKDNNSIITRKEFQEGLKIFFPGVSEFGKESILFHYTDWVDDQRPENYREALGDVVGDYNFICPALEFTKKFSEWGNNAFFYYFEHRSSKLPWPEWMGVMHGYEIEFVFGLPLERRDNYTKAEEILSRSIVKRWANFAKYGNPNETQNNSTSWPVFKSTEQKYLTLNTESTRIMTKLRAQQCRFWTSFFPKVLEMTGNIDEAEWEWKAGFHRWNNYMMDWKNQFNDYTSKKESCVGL
# [12] = system: SH-SY5Y cells; experiment: Cytotoxicity in differentiated SH-SY5Y cells, MTT; type: cell-based; settings: 100 µM, SH-SY5Y, MTT, average of 5
# Experimental: as §2
# [13] = long-term memory (24 h delay), donepezil 3 mg/kg p.o. + scopolamine 1 mg/kg i.p.
# [14] = short-term memory, donepezil 3 mg/kg p.o. + scopolamine 1 mg/kg i.p.
# [15] = read-out: Inhibition of Aβ formation IC50
# [16] = differentiated SH-SY5Y neuroblastoma cells, 0.1 µM, SH-SY5Y, MTT, average of 5, read-out: %Cell viability (cytotoxicity)
# [17] = differentiated SH-SY5Y neuroblastoma cells, 1 µM, SH-SY5Y, MTT, average of 5, read-out: %Cell viability (cytotoxicity)
# [18] = differentiated SH-SY5Y neuroblastoma cells, 10 µM, SH-SY5Y, MTT, average of 5, read-out: %Cell viability (cytotoxicity)
# [19] = differentiated SH-SY5Y neuroblastoma cells, 100 µM, SH-SY5Y, MTT, average of 5, read-out: %Cell viability (cytotoxicity)
# [20] = mean ± SD, n = 3, read-out: AChE inhibition IC50
# [21] = 0.1 µM, SH-SY5Y, MTT, average of 5, read-out: %Cell viability (cytotoxicity)
# [22] = 1 µM, SH-SY5Y, MTT, average of 5, read-out: %Cell viability (cytotoxicity)
# [23] = 10 µM, SH-SY5Y, MTT, average of 5, read-out: %Cell viability (cytotoxicity)
# [24] = 100 µM, SH-SY5Y, MTT, average of 5, read-out: %Cell viability (cytotoxicity)
# [25] = long-term memory (24 h delay), scopolamine 1 mg/kg i.p. alone
# [26] = short-term memory, scopolamine 1 mg/kg i.p. alone
compound,measurement,setting,value
COc1cc2c(cc1OC)C(=O)C(CC1CCN(Cc3ccccc3)CC1)C2 (stereo not drawn) [Donepezil],%unfamiliar arm exploration,"[1]; long-term memory (24 hours), donepezil 3 mg/kg p.o. + scopolamine 1 mg/kg i.p.",39.94%
same,%unfamiliar arm exploration,"[1]; short-term memory (30 min), donepezil 3 mg/kg p.o. + scopolamine 1 mg/kg i.p.",40.79%
same,"Locomotor activity, total number of arm entries",[2],23.57
same,Time spent exploring the familiar object,[3]; [13],32.11 s
same,Time spent exploring the novel object,[3]; [13],56.84 s
same,Time spent exploring the familiar object,[3]; [14],52.86 s
same,Time spent exploring the novel object,[3]; [14],64.31 s
same,"Time to find the platform, Escape latency","[4]; acquisition phase Day 1, donepezil 3 mg/kg p.o. + scopolamine 1 mg/kg i.p.",59.86 s
same,"Time to find the platform, Escape latency","[4]; acquisition phase Day 2, donepezil 3 mg/kg p.o. + scopolamine 1 mg/kg i.p.",49.00 s
same,"Time to find the platform, Escape latency","[4]; acquisition phase Day 3, donepezil 3 mg/kg p.o. + scopolamine 1 mg/kg i.p.",37.04 s
same,"Time to find the platform, Escape latency","[4]; acquisition phase Day 4, donepezil 3 mg/kg p.o. + scopolamine 1 mg/kg i.p.",27.71 s
same,"Time to find the platform, Escape latency","[4]; acquisition phase Day 5, donepezil 3 mg/kg p.o. + scopolamine 1 mg/kg i.p.",25.57 s
same,Time spent in the target quadrant,"[4]; probe test day 6, donepezil 3 mg/kg p.o. + scopolamine 1 mg/kg i.p.",18.39 s
"COc1cc(OC)c2c(=O)cc(-c3ccccc3)oc2c1 [F1, 5,7-dimethoxyflavone]",IC50,[5]; [15],105 ± 1.34 µM
same,viability at 0.1 µM,[6],104%
same,viability at 1 µM,[6],104%
same,viability at 10 µM,[6],103%
same,viability at 100 µM,[6],103%
same,IC50,[7],> 100 µM
same,IC50,[8],181 ± 2.66 µM
same,IC50,[9],75.9 ± 4.96 µM
same,IC50,[10],> 100 µM
same,IC50,[11],92.19 ± 0.69 µM
"COc1cc(OC)c2c(=O)c(OC)c(-c3ccccc3)oc2c1 [F2, 3,5,7-trimethoxyflavone]",IC50,[5]; [15],87.1 ± 4.51 µM
same,viability at 0.1 µM,[6]; [16],103%
same,viability at 1 µM,[6]; [17],102%
same,viability at 10 µM,[6]; [18],102%
same,viability at 100 µM,[6]; [19],94%
same,%Cell viability (cytotoxicity),[12],toxic
same,IC50,[7],> 100 µM
same,IC50,[8]; [20],237.1 ± 2.28 µM
same,IC50,[9],83.9 ± 1.67 µM
same,IC50,[10],> 100 µM
same,IC50,[11],233 ± 6.89 µM
"COc1ccc(-c2cc(=O)c3c(OC)cc(OC)cc3o2)cc1 [F3, 5,7,4′-trimethoxyflavone]",IC50,[5]; [15],91.4 ± 4.67 µM
same,viability at 0.1 µM,[6]; [21],101%
same,viability at 1 µM,[6]; [22],102%
same,viability at 10 µM,[6]; [23],102%
same,viability at 100 µM,[6]; [24],95.5%
same,IC50,[7],> 100 µM
same,IC50,[8],106 ± 1.14 µM
same,IC50,[9],39.5 ± 0.61 µM
same,IC50,[10],> 100 µM
same,IC50,[11],152 ± 6.14 µM
"COc1cc(O)c2c(=O)c(OC)c(-c3ccccc3)oc2c1 [F4, 5-hydroxy-3,7-dimethoxyflavone]",IC50,[5]; [15],97.1 ± 2.38 µM
same,viability at 0.1 µM,[6]; [16],102%
same,viability at 1 µM,[6]; [17],103%
same,viability at 10 µM,[6]; [18],103%
same,viability at 100 µM,[6]; [19],80.5%
same,%Cell viability (cytotoxicity),[12],toxic
same,IC50,[7],> 100 µM
same,IC50,[8]; [20],217.6 ± 1.84 µM
same,IC50,[9],63.9 ± 1.83 µM
same,IC50,[10],> 100 µM
same,IC50,[11],33.5 ± 2.97 µM
"COc1ccc(-c2oc3cc(OC)cc(OC)c3c(=O)c2OC)cc1 [F5, 3,5,7,4′-tetramethoxyflavone]",IC50,[5],134 ± 5.08 µM
same,viability at 0.1 µM,[6]; [21],99.9%
same,viability at 1 µM,[6]; [22],99.8%
same,viability at 10 µM,[6]; [23],98.8%
same,viability at 100 µM,[6]; [24],102%
same,IC50,[7],> 100 µM
same,IC50,[8],209.1 ± 0.82 µM
same,IC50,[9],51.3 ± 3.13 µM
same,IC50,[10],> 100 µM
same,IC50,[11],164 ± 5.13 µM
CN1[C@@H]2C[C@@H](OC(=O)[C@H](CO)c3ccccc3)C[C@H]1[C@@H]1O[C@@H]12 [Scopolamine],%unfamiliar arm exploration,"[1]; long-term memory (24 hours), scopolamine 1 mg/kg i.p. alone",33.37%
same,%unfamiliar arm exploration,"[1]; short-term memory (30 min), scopolamine 1 mg/kg i.p. alone",31.09%
same,Time spent exploring the familiar object,[3]; [25],43.83 s
same,Time spent exploring the novel object,[3]; [25],27.21 s
same,Time spent exploring the familiar object,[3]; [26],63.40 s
same,Time spent exploring the novel object,[3]; [26],46.80 s
same,"Time to find the platform, Escape latency","[4]; acquisition phase Day 1, scopolamine 1 mg/kg i.p. alone",58.43 s
same,"Time to find the platform, Escape latency","[4]; acquisition phase Day 2, scopolamine 1 mg/kg i.p. alone",54.46 s
same,"Time to find the platform, Escape latency","[4]; acquisition phase Day 3, scopolamine 1 mg/kg i.p. alone",46.21 s
same,"Time to find the platform, Escape latency","[4]; acquisition phase Day 4, scopolamine 1 mg/kg i.p. alone",39.64 s
same,"Time to find the platform, Escape latency","[4]; acquisition phase Day 5, scopolamine 1 mg/kg i.p. alone",35.04 s
"Cc1c(C)c2c(c(C)c1O)CCC(C)(C(=O)O)O2 (stereo not drawn) [Trolox, reference compound]",IC50,[7],24.6 ± 0.39 µM
same,IC50,[10],81.4 ± 4.67 µM
